# Assay results published in patent US4593093A, “Acyl derivatives” (priority 1980, dated 1986).
# Structures can show the parent of a compound that is named as a salt. Where two headings read alike, the source gives them in different places.
# Tests used:
# Escherichia coli [1] = assay: Activity in vitro: minimum inhibitory concentration; format: cell-based
# Proteus mirabilis = assay: as above; format: cell-based
# Proteus morganii = assay: as above; format: cell-based; conditions: Morganella morganii
# Proteus rettgeri = assay: as above; format: cell-based; conditions: Providencia rettgeri
# Proteus inconstans = assay: as above; format: cell-based; conditions: Providencia alcalifaciens
# Proteus vulgaris = assay: as above; format: cell-based
# Klebsiella pseumoniae = assay: as above; format: cell-based
# Serratia marcescens [2] = assay: as above; format: cell-based
# Enterobacter cloacae [3] = assay: as above; format: cell-based
# Enterobacter aerogenes = assay: as above; format: cell-based; conditions: Klebsiella aerogenes
# Citrobacter freundii = assay: as above; format: cell-based
# Pseudomonas aeruginosa [4] = assay: as above; format: cell-based
# Staphylococcus aureus = assay: as above; format: cell-based
# Staphylococcus epidermis = assay: as above; format: cell-based
# Streptococcus faecalis = assay: as above; format: cell-based; conditions: Enterococcus faecalis
# Streptococcus pyogenes [5] = assay: as above; format: cell-based
# Streptococcus pneumoniae = assay: as above; format: cell-based
# Streptococcus viridans = assay: as above; format: cell-based
# Enterobacter cloacae [6] = assay: Activity in vivo: survival of intraperitoneally infected mice; conditions: sc, 96 h; mice infected i.p. with Enterobacter cloacae; s.c. twice, 1 h and 3 h after infection; survival on 4th day; read-out: CD50 (dosage at which 50% of the animals survive)
# Procedure: (§1) Groups of 5 mice are infected intraperitoneally with an aqueous suspension of various pathogens. The test substance in physiological sodium chloride solution is administered subcutaneously twice, i.e. 1 hour and 3 hours after the infection. The number of surviving animals is determined on the 4th day. Various dosages are administered and that dosage at which 50% of the experimental animals survive (CD50, mg/kg) is determined by interpolation.
# Escherichia coli [7] = assay: as above; conditions: sc, 96 h; mice infected i.p. with Escherichia coli; s.c. twice, 1 h and 3 h after infection; survival on 4th day; read-out: CD50 (dosage at which 50% of the animals survive)
# Procedure: as §1
# Haemophilus influenzae = assay: as above; conditions: sc, 96 h; mice infected i.p. with Haemophilus influenzae; s.c. twice, 1 h and 3 h after infection; survival on 4th day; read-out: CD50 (dosage at which 50% of the animals survive)
# Procedure: as §1
# Serratia marcescens [8] = assay: as above; conditions: sc, 96 h, mice infected i.p. with Serratia marcescens strain 1, s.c. twice, 1 h and 3 h after infection, survival on 4th day, read-out: CD50 (dosage at which 50% of the animals survive)
# Procedure: as §1
# Streptococcus pyogenes [9] = assay: as above; conditions: sc, 96 h; mice infected i.p. with Streptococcus pyogenes; s.c. twice, 1 h and 3 h after infection; survival on 4th day; read-out: CD50 (dosage at which 50% of the animals survive)
# Procedure: as §1
# Pseudomonas aeruginosa [10] = assay: as above; conditions: sc, 96 h; mice infected i.p. with Pseudomonas aeruginosa; s.c. three times, 1 h, 3 h and 5 h after infection; survival on 4th day; read-out: CD50 (dosage at which 50% of the animals survive)
# Procedure: as §1
# *Administered subcutaneously three times: 1 hour, 3 hours and 5 hours
# Toxicity, LD50 = conditions: in vivo
# [11] = Pseudomonas aeruginosa strain 1
# [12] = Pseudomonas aeruginosa strain 2
# [13] = Pseudomonas aeruginosa strain 3
# [14] = Streptococcus pyogenes strain 1, read-out: Minimum inhibitory concentration
smiles,measurement,setting,value
"CO/N=C(\C(=O)N[C@@H]1C(=O)N2C(C(=O)[O-])=C(CSc3nnnn3C)CS[C@H]12)c1c[se]c(N)n1.[Na+] [Product A, (6R, 7R)-7-[2-(2-amino-4-selenazolyl)-2-[(Z)-methoxyimino]-acetamido]-3-[[(1-methyl-1H-tetrazol-5-yl)-thio]methyl]-8-oxo-5-thia-1-azabicyclo[4.2.0]oct-2-ene-2-carboxylic acid sodium salt]",MIC,Escherichia coli [1]; Escherichia coli strain 1,0.1 µg/mL
same,MIC,Escherichia coli [1]; Escherichia coli strain 2,0.025 µg/mL
same,MIC,Escherichia coli [1]; Escherichia coli strain 3,0.4 µg/mL
same,MIC,Escherichia coli [1]; Escherichia coli strain 4,0.2 µg/mL
same,MIC,Escherichia coli [1]; Escherichia coli strain 5,0.4 µg/mL
same,MIC,Proteus mirabilis; Proteus mirabilis strain 1,0.1 µg/mL
same,MIC,Proteus mirabilis; Proteus mirabilis strain 2,0.1 µg/mL
same,MIC,Proteus mirabilis; Proteus mirabilis strain 3,0.8 µg/mL
same,MIC,Proteus mirabilis; Proteus mirabilis strain 4,0.05 µg/mL
same,MIC,Proteus mirabilis; Proteus mirabilis strain 5,0.05 µg/mL
same,MIC,Proteus morganii,0.1 µg/mL
same,MIC,Proteus rettgeri,0.2 µg/mL
same,MIC,Proteus inconstans,0.025 µg/mL
same,MIC,Proteus vulgaris,0.78 µg/mL
same,MIC,Klebsiella pseumoniae; Klebsiella pseumoniae strain 1,0.2 µg/mL
same,MIC,Klebsiella pseumoniae; Klebsiella pseumoniae strain 2,0.05 µg/mL
same,MIC,Klebsiella pseumoniae; Klebsiella pseumoniae strain 3,0.1 µg/mL
same,MIC,Serratia marcescens [2]; Serratia marcescens strain 1,0.4 µg/mL
same,MIC,Serratia marcescens [2]; Serratia marcescens strain 2,0.8 µg/mL
same,MIC,Serratia marcescens [2]; Serratia marcescens strain 3,0.1 µg/mL
same,MIC,Enterobacter cloacae [3]; Enterobacter cloacae strain 1,> 100 µg/mL
same,MIC,Enterobacter cloacae [3]; Enterobacter cloacae strain 2,0.8 µg/mL
same,MIC,Enterobacter cloacae [3]; Enterobacter cloacae strain 3,50 µg/mL
same,MIC,Enterobacter aerogenes; Enterobacter aerogenes strain 1,0.1 µg/mL
same,MIC,Enterobacter aerogenes; Enterobacter aerogenes strain 2,0.1 µg/mL
same,MIC,Citrobacter freundii; Citrobacter freundii strain 1,1.6 µg/mL
same,MIC,Citrobacter freundii; Citrobacter freundii strain 2,0.05 µg/mL
same,MIC,Pseudomonas aeruginosa [4]; [11],25 µg/mL
same,MIC,Pseudomonas aeruginosa [4]; [12],25 µg/mL
same,MIC,Pseudomonas aeruginosa [4]; [13],6.3 µg/mL
same,MIC,Staphylococcus aureus; Staphylococcus aureus strain 1,0.8 µg/mL
same,MIC,Staphylococcus aureus; Staphylococcus aureus strain 2,1.6 µg/mL
same,MIC,Staphylococcus aureus; Staphylococcus aureus strain 3,0.8 µg/mL
same,MIC,Staphylococcus aureus; Staphylococcus aureus strain 4,0.8 µg/mL
same,MIC,Staphylococcus epidermis,0.8 µg/mL
same,MIC,Streptococcus faecalis; Streptococcus faecalis strain 1,100 µg/mL
same,MIC,Streptococcus faecalis; Streptococcus faecalis strain 2,> 100 µg/mL
same,MIC,Streptococcus pyogenes [5]; [14],0.025 µg/mL
same,MIC,"Streptococcus pyogenes [5]; Streptococcus pyogenes strain 2, read-out: Minimum inhibitory concentration",≤ 0.012 µg/mL
same,MIC,Streptococcus pneumoniae,0.025 µg/mL
same,MIC,Streptococcus viridans,0.8 µg/mL
same,ED50,Enterobacter cloacae [6],8.4 mg/kg
same,ED50,Escherichia coli [7],0.006 mg/kg
same,ED50,Haemophilus influenzae,1.5 mg/kg
same,ED50,Serratia marcescens [8],0.13 mg/kg
same,ED50,Streptococcus pyogenes [9],0.05 mg/kg
same,ED50,Pseudomonas aeruginosa [10],39 mg/kg
same,LD50,"Toxicity, LD50; po",> 5000 mg/kg
same,LD50,"Toxicity, LD50; sc",> 4000 mg/kg
"CO/N=C(\C(=O)N[C@@H]1C(=O)N2C(C(=O)O)=C(COC(C)=O)CS[C@H]12)c1c[se]c(N)n1 [Product D, (6R, 7R)-3-(acetoxymethyl)-7-[2-(2-amino-4-selenazolyl)-2-[(Z)-methoxyimino]-acetamido]-8-oxo-5-thia-1-azabicyclo[4.2.0]oct-2-ene-2-carboxylic acid disodium salt]",MIC,Escherichia coli [1]; Escherichia coli strain 1,0.1 µg/mL
same,MIC,Escherichia coli [1]; Escherichia coli strain 2,0.025 µg/mL
same,MIC,Proteus mirabilis; Proteus mirabilis strain 1,0.025 µg/mL
same,MIC,Proteus mirabilis; Proteus mirabilis strain 2,0.05 µg/mL
same,MIC,Proteus morganii,0.39 µg/mL
same,MIC,Proteus vulgaris,0.78 µg/mL
same,MIC,Klebsiella pseumoniae; Klebsiella pseumoniae strain 1,0.2 µg/mL
same,MIC,Klebsiella pseumoniae; Klebsiella pseumoniae strain 2,0.025 µg/mL
same,MIC,Serratia marcescens [2]; Serratia marcescens strain 1,0.8 µg/mL
same,MIC,Serratia marcescens [2]; Serratia marcescens strain 2,0.8 µg/mL
same,MIC,Enterobacter cloacae [3]; Enterobacter cloacae strain 1,> 100 µg/mL
same,MIC,Enterobacter cloacae [3]; Enterobacter cloacae strain 2,3.1 µg/mL
same,MIC,Citrobacter freundii; Citrobacter freundii strain 1,6.3 µg/mL
same,MIC,Pseudomonas aeruginosa [4]; [11],12.5 µg/mL
same,MIC,Pseudomonas aeruginosa [4]; [12],12.5 µg/mL
same,MIC,Pseudomonas aeruginosa [4]; [13],3.1 µg/mL
same,MIC,Staphylococcus aureus; Staphylococcus aureus strain 1,0.8 µg/mL
same,MIC,Staphylococcus aureus; Staphylococcus aureus strain 2,3.1 µg/mL
same,MIC,Streptococcus pyogenes [5]; [14],0.05 µg/mL
same,ED50,Escherichia coli [7],< 0.01 mg/kg
same,ED50,Serratia marcescens [8],0.14 mg/kg
same,ED50,Streptococcus pyogenes [9],0.05 mg/kg
same,ED50,Pseudomonas aeruginosa [10],35 mg/kg
same,LD50,"Toxicity, LD50; po",> 5000 mg/kg
same,LD50,"Toxicity, LD50; sc",> 4000 mg/kg
